For this assay, the target named is recombinant RORγ Ligand Binding Domain (LBD) (Homo sapiens (Human), UniProt P51449). Nature of the assay: Radio-Ligand RORγ Binding Assay (Assay 1). Particulars: SPA competition with 25-hydroxy [26,27-3H]-cholesterol, cell-free; read-out: RORγ Binding Ki Range. The method, then:
Radio-Ligand RORγ Binding Assay (Assay 1)
Compounds of the present invention were tested for ability to bind to RORγ in a cell-free competition assay with commercially available radio-ligand (RL), 25-hydroxy [26,27-^3H]-cholesterol (PerkinElmer, Cat. #NET674250UC), for a ligand binding site on a recombinant RORγ Ligand Binding Domain (LBD) protein expressed as a 6×His-Glutathione-S-Transferase (GST) fusion. […] The plate was shaken at 700 rpm for 20 min and incubated for 10 min at rt, after which 40 μL of poly-Lys YSi SPA beads (PerkinElmer, Cat. #RPNQ0010) were added to achieve 50 μg of the beads per well. The plate was incubated on an orbital shaker for 20 min and then for 10 min without agitation at rt. SPA signal for tritium beta radiation was registered on PerkinElmer Microbeta plate reader. […] The percent inhibition vs. concentration data were fit into a four-parameter model, and IC50 values were calculated from the fit as the concentrations corresponding to the inflection points on the dose-response curves.
Sequence of recombinant RORγ Ligand Binding Domain (LBD) (P51449 269-508): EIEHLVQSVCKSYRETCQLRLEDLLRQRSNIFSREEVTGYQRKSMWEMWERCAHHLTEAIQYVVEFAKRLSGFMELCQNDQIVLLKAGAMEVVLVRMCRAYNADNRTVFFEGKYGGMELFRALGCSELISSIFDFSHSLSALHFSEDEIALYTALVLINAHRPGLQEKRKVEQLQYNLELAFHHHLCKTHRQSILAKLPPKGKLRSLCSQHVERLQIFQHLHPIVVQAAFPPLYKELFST
As usually defined, the Ki is the equilibrium dissociation constant of an inhibitor or competing ligand from its target. In the case of `CC(C)[C@@H]1c2ncc(C(=O)NCc3ccc(S(C)(=O)=O)cc3)cc2CN1Cc1ccc(Cl)cc1` [Compound 18], the Ki was above 1000 nM. With `CC(C)[C@@H]1c2ncc(C(=O)NCc3ccc(S(C)(=O)=O)cc3)cc2CN1Cc1ccc(C#N)cc1` [Compound 19] the figure was above 1000 nM; with `CC(C)[C@H]1c2ncc(C(=O)NCc3ccc(S(C)(=O)=O)cc3)cc2CN1Cc1ccc(Cl)cn1` [Compound 23], 100 to 1000 nM; with `CC(C)[C@H]1c2ncc(C(=O)NCc3ccc(S(C)(=O)=O)cc3)cc2CN1Cc1ccc(C(F)(F)F)cn1` [Compound 36], 100 to 1000 nM.

With `CC(C)[C@@H]1c2ncc(C(=O)NCc3ccc(S(C)(=O)=O)cc3)cc2CN1Cc1ccc(C(F)(F)F)cn1` [Compound 37], the Ki is above 1000 nM. With `CCS(=O)(=O)c1ccc(CNC(=O)c2cnc3c(c2)CN(C[C@H]2CC[C@H](C(=O)OC)CC2)[C@H]3C(C)C)cc1` [Compound 44] the figure was below 100 nM. `CCS(=O)(=O)c1ccc(CNC(=O)c2cnc3c(c2)C(=O)N(C[C@H]2CC[C@H](C(F)(F)F)CC2)[C@H]3C(C)C)nc1` [Compound 47]: the inhibitory constant (Ki) was below 100 nM.

Take `CC(C)[C@H]1c2ncc(C(=O)NCC3CCS(=O)(=O)CC3)cc2CN1Cc1ccc(C(F)(F)F)cc1` [Compound 61]: the inhibitory constant (Ki) is above 1000 nM. On to `CC(C)[C@H]1c2ncc(C(=O)NCCC3CCS(=O)(=O)CC3)cc2CN1Cc1ccc(C(F)(F)F)cc1` [Compound 62], for which the Ki was above 1000 nM. In the case of `COC(=O)c1ccc(CNC(=O)c2cnc3c(c2)CN(Cc2ccc(C(F)(F)F)cc2)[C@H]3C(C)C)cc1` [Compound 65, Methyl (S)-4-((7-isopropyl-6-(4-(trifluoromethyl)benzyl)-6,7-dihydro-5H-pyrrolo[3,4-b]pyridine-3-carboxamido)methyl)benzoate], the inhibition constant (Ki) lay within 100 to 1000 nM. Turning to `CC(C)[C@H]1c2ncc(C(=O)NCCC3CN(C(=O)OC(C)(C)C)C3)cc2CN1Cc1ccc(C(F)(F)F)cc1` [Compound 66], the Ki is above 1000 nM.

For `CC(C)[C@H]1c2ncc(C(=O)NCC3CN(C(=O)OC(C)(C)C)C3)cc2CN1Cc1ccc(C(F)(F)F)cc1` [Compound 68], the Ki was above 1000 nM. Take `CC(C)[C@H]1c2ncc(C(=O)NCc3cn4cccnc4n3)cc2CN1Cc1ccc(C(F)(F)F)cc1` [Compound 69]: the Ki was above 1000 nM. With `CC(C)[C@H]1c2ncc(C(=O)NCC(O)c3ccc(C(F)(F)F)cc3)cc2CN1Cc1ccc(C(F)(F)F)cc1` (stereo partly shown) [Compound 70] the figure was above 1000 nM; with `CC(C)[C@H]1c2ncc(C(=O)N[C@@H](CCO)c3ccc(Cl)cc3)cc2CN1Cc1ccc(C(F)(F)F)cc1` [Compound 71], 100 to 1000 nM; with `CC(C)[C@H]1c2ncc(C(=O)NCC3CCN(C(=O)OC(C)(C)C)C3)cc2CN1Cc1ccc(C(F)(F)F)cc1` (stereo partly shown) [Compound 74], above 1000 nM. For `COC(=O)[C@H]1CC[C@H](CNC(=O)c2cnc3c(c2)CN(Cc2ccc(C(F)(F)F)cc2)[C@H]3C(C)C)CC1` [Compound 75], the Ki was above 1000 nM. In the case of `CC(C)[C@H]1c2ncc(C(=O)NCCN3CCOCC3)cc2CN1Cc1ccc(C(F)(F)F)cc1` [Compound 77] it was above 1000 nM; in that of `CC(C)[C@H]1c2ncc(C(=O)NCc3ccccn3)cc2CN1Cc1ccc(C(F)(F)F)cc1` [Compound 78], 100 to 1000 nM. Turning to `CC(C)[C@H]1c2ncc(C(=O)NCCCN3CCCC3=O)cc2CN1Cc1ccc(C(F)(F)F)cc1` [Compound 79], the inhibition constant Ki is above 1000 nM.

Turning to `CC(C)[C@H]1c2ncc(C(=O)NCC3(c4ccc(Cl)cc4)CC3)cc2CN1Cc1ccc(C(F)(F)F)cc1` [Compound 80], the Ki was above 1000 nM.

As for `CC(C)[C@H]1c2ncc(C(=O)NCc3ccccc3CN3CCN(C)CC3)cc2CN1Cc1ccc(C(F)(F)F)cc1` [Compound 81], the Ki is above 1000 nM. For the molecule `CC(C)[C@H]1c2ncc(C(=O)NCc3ccn(C)n3)cc2CN1Cc1ccc(C(F)(F)F)cc1` [Compound 82], the Ki is above 1000 nM. For the molecule `CC(C)[C@H]1c2ncc(C(=O)NCc3ccnnc3)cc2CN1Cc1ccc(C(F)(F)F)cc1` [Compound 83], the Ki fell in the range of 100 to 1000 nM. Take `CC(C)[C@H]1c2ncc(C(=O)NCc3cccnn3)cc2CN1Cc1ccc(C(F)(F)F)cc1` [Compound 84]: the inhibition constant Ki was above 1000 nM. On to `CC(C)[C@H]1c2ncc(C(=O)NCC3COCCO3)cc2CN1Cc1ccc(C(F)(F)F)cc1` (stereo partly shown) [Compound 85], for which the Ki is above 1000 nM.

With `CCS(=O)(=O)CCNC(=O)c1cnc2c(c1)CN(Cc1ccc(C(F)(F)F)cc1)[C@H]2C(C)C` [Compound 86], the Ki was above 1000 nM.

On to `CC(C)[C@H]1c2ncc(C(=O)NC3(CO)Cc4ccccc4C3)cc2CN1Cc1ccc(C(F)(F)F)cc1` [Compound 87], for which the Ki was above 1000 nM. Turning to `CC(C)[C@H]1c2ncc(C(=O)NCC(c3cccnc3)N3CCOCC3)cc2CN1Cc1ccc(C(F)(F)F)cc1` (stereo partly shown) [Compound 88], the Ki is above 1000 nM. As to `CC(C)[C@H]1c2ncc(C(=O)NCCC3CCOCC3)cc2CN1Cc1ccc(C(F)(F)F)cc1` [Compound 90], the Ki is 100 to 1000 nM. For the molecule `CC(C)[C@H]1c2ncc(C(=O)NCC(c3ccncc3)N(C)C)cc2CN1Cc1ccc(C(F)(F)F)cc1` (stereo partly shown) [Compound 92], the inhibitory constant (Ki) was above 1000 nM. With `CC(C)[C@H]1c2ncc(C(=O)NCC(c3ccc(C(F)(F)F)cc3)N3CCOCC3)cc2CN1Cc1ccc(C(F)(F)F)cc1` (stereo partly shown) [Compound 93] the figure was above 1000 nM. As to `CC(C)[C@H]1c2ncc(C(=O)NCc3nnc4n3CCC4)cc2CN1Cc1ccc(C(F)(F)F)cc1` [Compound 94], the Ki is above 1000 nM. Consider `CC(C)[C@H]1c2ncc(C(=O)NCCCn3ccnc3)cc2CN1Cc1ccc(C(F)(F)F)cc1` [Compound 96], for which the inhibition constant Ki is above 1000 nM. In the case of `CC(C)[C@H]1c2ncc(C(=O)NCCc3ccccn3)cc2CN1Cc1ccc(C(F)(F)F)cc1` [Compound 97] it was above 1000 nM. With `CC(C)[C@H]1c2ncc(C(=O)NCc3ccccc3OCCN(C)C)cc2CN1Cc1ccc(C(F)(F)F)cc1` [Compound 98] the figure was above 1000 nM; with `CC(C)[C@H]1c2ncc(C(=O)NCCN3CCN(C)CC3)cc2CN1Cc1ccc(C(F)(F)F)cc1` [Compound 99], above 1000 nM. For the molecule `CC(C)[C@H]1c2ncc(C(=O)NCC3CCN(C)CC3)cc2CN1Cc1ccc(C(F)(F)F)cc1` [Compound 100], the Ki is above 1000 nM. On to `CC(C)[C@H]1c2ncc(C(=O)NCCc3ccnc(O)c3)cc2CN1Cc1ccc(C(F)(F)F)cc1` [Compound 101], for which the inhibition constant Ki was above 1000 nM. Take `CCS(=O)(=O)N1CC(CCNC(=O)c2cnc3c(c2)CN(Cc2ccc(C(F)(F)F)cc2)[C@H]3C(C)C)C1` [Compound 102]: the Ki was in the range of 100 to 1000 nM.

On to `CCS(=O)(=O)N1CC(CNC(=O)c2cnc3c(c2)CN(Cc2ccc(C(F)(F)F)cc2)[C@H]3C(C)C)C1` [Compound 104], for which the Ki lay within 100 to 1000 nM. Turning to `COC(=O)N1CC(CNC(=O)c2cnc3c(c2)CN(Cc2ccc(C(F)(F)F)cc2)[C@H]3C(C)C)C1` [Compound 105], the Ki is above 1000 nM. For the molecule `CCS(=O)(=O)N1CCC(CNC(=O)c2cnc3c(c2)CN(Cc2ccc(C(F)(F)F)cc2)[C@H]3C(C)C)C1` (stereo partly shown) [Compound 106], the Ki is 100 to 1000 nM. Turning to `COC(=O)N1CCC(CNC(=O)c2cnc3c(c2)CN(Cc2ccc(C(F)(F)F)cc2)[C@H]3C(C)C)C1` (stereo partly shown) [Compound 107], the inhibition constant Ki was in the range of 100 to 1000 nM.

As to `CNC(=O)[C@H]1CC[C@H](CNC(=O)c2cnc3c(c2)CN(Cc2ccc(C(F)(F)F)cc2)[C@H]3C(C)C)CC1` [Compound 108], the Ki is above 1000 nM. Turning to `COC(=O)N1CCC(CNC(=O)c2cnc3c(c2)CN(Cc2ccc(C(F)(F)F)cc2)[C@H]3C(C)C)CC1` [Compound 110], the Ki was above 1000 nM.

For `CC(O)C(=O)N1CCC(CNC(=O)c2cnc3c(c2)CN(Cc2ccc(C(F)(F)F)cc2)[C@H]3C(C)C)CC1` (stereo partly shown) [Compound 112], the Ki is above 1000 nM.

Take `CC(C)[C@H]1c2ncc(C(=O)NCC3CCN(C(=O)CO)CC3)cc2CN1Cc1ccc(C(F)(F)F)cc1` [Compound 113]: the Ki was 100 to 1000 nM. With `CC(=O)N1CCC(CNC(=O)c2cnc3c(c2)CN(Cc2ccc(C(F)(F)F)cc2)[C@H]3C(C)C)CC1` [Compound 114], the Ki was above 1000 nM. Regarding `CC(C)[C@H]1c2ncc(C(=O)NCc3ccncc3)cc2CN1Cc1ccc(C(F)(F)F)cc1` [Compound 115], the inhibition constant Ki fell in the range of 100 to 1000 nM. In the case of `CC(C)[C@H]1c2ncc(C(=O)NCc3cccc(S(C)(=O)=O)c3)cc2CN1Cc1ccc(C(F)(F)F)cc1` [Compound 116], the Ki was 100 to 1000 nM.

In the case of `CC(C)[C@H]1c2ncc(C(=O)NCC(F)(F)F)cc2CN1Cc1ccc(C(F)(F)F)cc1` [Compound 117], the Ki was above 1000 nM.

As for `CC(C)[C@H]1c2ncc(C(=O)NCC3(O)CCC4(CC3)OCCO4)cc2CN1Cc1ccc(C(F)(F)F)cc1` [Compound 118], the inhibitory constant (Ki) is above 1000 nM. For the molecule `CC(C)[C@H]1c2ncc(C(=O)N[C@H](C)c3ccc(Br)cc3)cc2CN1Cc1ccc(C(F)(F)F)cc1` [Compound 119], the Ki is above 1000 nM. Consider `CC(C)[C@H]1c2ncc(C(=O)NC3(c4cnccn4)CC3)cc2CN1Cc1ccc(C(F)(F)F)cc1` [Compound 120], for which the inhibition constant (Ki) was above 1000 nM. As for `CC(C)[C@H]1c2ncc(C(=O)NCCC3C(=O)Nc4ccc(Cl)cc43)cc2CN1Cc1ccc(C(F)(F)F)cc1` (stereo partly shown) [Compound 121], the Ki is above 1000 nM.

`CC(C)NC(=O)c1cnc2c(c1)CN(Cc1ccc(C(F)(F)F)cc1)[C@H]2C(C)C` [Compound 122]: the Ki is above 1000 nM. In the case of `CC(C)[C@H]1c2ncc(C(=O)NC(CO)c3ccc(Br)cc3)cc2CN1Cc1ccc(C(F)(F)F)cc1` (stereo partly shown) [Compound 123] it was 100 to 1000 nM.

Values taken from US9624217B2, “Dihydropyrrolopyridine inhibitors of ROR-gamma” (Vitae Pharmaceuticals, Inc., priority 2014, dated 2017).
